From paper PMC10286459 (Cell & Bioscience, 2023)
Non-standard residues stand in square brackets, D forms with d. Residues, ends and D or L forms follow the SMILES beside them.

Legend:
[1] = system: FOXM1-binding promoters (6xFOXM1 binding sequence-containing promoter, − 1.8 kb promoter of CDC25B); assay: Dual luciferase reporter, FOXM1-binding promoters; conditions: HEK-293T, cotransfection with pCMV-FOXM1; M1-21 5, 10, 20 µM for 24 h; n = 3
Method: (§3) C Reporter plasmids containing the luciferase gene downstream of the 6×FOXM1 binding sequence (6×FOXM1 Binding-Luc, 0.4 µg) or the − 1.8 kb CDC25B promoter (CDC25B pro(-1.8 kb)-Luc, 0.4 µg) were co-transfected with pCMV-FOXM1 (0.6 µg) into HEK-293T cells, plus pRL-CMV plasmid (20 ng/well) as a loading control. […] Then cell lysates were prepared and used for the measurement of dual Luciferase activities. Number of repetitions = 3. […] F Reporter plasmids containing the luciferase gene downstream of the − 1.4 kb PLK1 promoter (PLK1 pro(-1.4 kb)-Luc, 0.4 µg) were co-transfected with pCMV-FOXM1 (0.6 µg) into HEK-293T cells, plus pRL-CMV plasmid (20 ng/well) as loading control. […] Then cell lysates were prepared and used to measure dual Luciferase activity. Number of repetitions = 3.
(§4) HEK-293T cells (1×10^5 cells/well in 12-well plates) were transfected (EZ Trans, LIFE iLAB BIO, China) with certain luciferase reporter vectors (0.4 µg) and expression vector (0.6 µg) (or control plasmid (0.6 µg)). pRL-CMV plasmid (20 ng) was used as loading control for each transfection. 8 Hours after transfection, the medium was replaced and inhibitory peptides (or control peptide) with different concentrations were added. Finally, luciferase activity was measured 48 hours later with the Dual luciferase Assay system (Promega, USA) according to the manufacturer's instructions.

mouse erythrocytes = assay: Hemolysis assay; conditions: 800 µg/mL, mouse blood 10% (v/v) in normal saline, 37℃ for 3 h, absorbance 540 nm
Method: (§1) One week later, the animals’ different organs were harvested and subjected to tissue sectioning and H&E staining. Photos were taken by inverted microscope (400×, Nikon TE2000). […] The mice’s diet and activity were observed continuously for 14 days. […] Water and PBS were used as hemolysis positive and negative controls, respectively. The absorbance of the samples was measured at 540 nm and used to calculate the Hemolysis rate % = [(OD Sample - OD Negative) / (OD Positive - OD Negative)] × 100%. E Immunogenicity analysis of M1-21. […] Blood samples were collected from mice at different time points (Week 2 to Week 8) and the absorption of anti-M1-21 antibody in serum (1:1000 dilution) was measured by ELISA. HRP-conjugated anti-mouse IgG was used as an ELISA secondary antibody.
(§2) Hemolysis assays were performed with fresh mouse blood collected and dispersed in normal saline (NaCl 0.9%) at 10% (v/v). […] Sterile double distilled water and PBS were used as positive and negative controls, respectively. Immunogenicity of M1-21 was detected by ELISA in mice. […] Blood samples were collected from mice at different time points (Week 2 to Week 8). […] ELISA plates were washed twice with PBS and blocked with 3% bovine serum albumin for 2 h. […] Absorption was measured at 492 nm.

4T1-Luc-GFP cells = assay: 4T1-Luc-GFP metastasis tracing in wild-type BALB/c mice; conditions: 15 or 30 mg/kg intraperitoneal every two days
Method: D Wild-type BALB/c mice were tail-vein injected with 4T1-Luc-GFP cells (1 × 10^6 cells/mouse). […] E Different organs of representative mice were harvested on Day 21 and fluorescent imaging was performed as described above. F The D panel mouse survival statistic curves were obtained by the Mantel-Cox estimator with log rank test
Wild-type BALB/c mice were injected with 4T1-Luc-GFP cells (1 × 10^6 cells/mouse) via the tail vein. […] Different organs of representative mice were harvested on Day 21 for luminaire imaging. When the mice lost mobility and had difficulty eating, the mice were considered near death and terminated according to animal welfare. The survival statistic curve was obtained by the Mantel-Cox estimator with the log rank test.

MDA-MB-231 cells = assay: mRNA and protein levels of marker and target genes (qPCR, Western blotting)
Method: The levels of mRNA or protein of E-cadherin (E-cad), Vimentin (VIM), and N-cadherin (N-cad) were measured by qPCR or Western blotting, respectively. GAPDH or β-actin was used as a loading control for mRNA or protein. mRNA values represented the mean ± SD of three replicates, and significance was calculated using unpaired t test. *P < 0.05; **P < 0.01; ***P < 0.001
The mRNA levels of PLK1, CDC25B, and Vimentin (VIM) were measured by qPCR. GAPDH was used as a loading control. […] The protein levels of PLK1, CDC25B, and Vimentin (VIM) were measured by Western blotting. β-actin was used as a loading control.
FOXM1 mRNA was detected by qPCR. GAPDH was used as a loading control.

TCF/LEF-binding promoter = assay: Dual luciferase reporter, TCF/LEF-binding promoter; conditions: HEK-293T; 5, 10, 20 µM for 24 h; n = 3
Method: as §3, §4

[2] = system: − 1.4 kb promoter of PLK1; assay: Dual luciferase reporter, CHR-containing promoter; conditions: HEK-293T, PLK1 pro(-1.4 kb)-Luc with pCMV-FOXM1; 5, 10, 20 µM for 24 h; n = 3
Method: as §3, §4

[3] = system: MDA-MB-231 engrafted tumors; assay: MDA-MB-231 tumor-engrafted BALB/c nude mice
Method: F BALB/c nude mice (female, 6 weeks old) were subcutaneously injected with MDA-MB-231 cells (1 × 10^6 cells/mouse). […] The volume of engrafted tumors was measured every two days and growth curves were obtained at the end of the experiment. The tumor volume (V) was calculated by: V = length × diameter^2 × 1/2. G Images and weight of engrafted tumors on Day 19. […] Number of repetitions = 3.
BALB/c nude mice and BALB/c wild-type mice (female, 6 weeks old) were purchased from Hunan SJA Laboratory Animal Co., Ltd. (Changsha, China). […] BALB/c nude mice were injected subcutaneously with MDA-MB-231 cells (1 × 10^6 cell/mouse). […] Tumor size was measured every two days. The tumor volume (V) was calculated by: V = length × diameter^2 × 1/2. Cancer tissue from the animals was harvested for imaging and weighing on Day 19.
B The lysates of the harvested cancer tissues were obtained and the protein levels of FOXM1, CDC25B, and PLK1 were detected by Western blotting. β-actin was used as a loading control. ImageJ software was used to calculate the gray value of the bands, and each point represented the value of protein content in the samples.

mouse Foxm1 = target: T1, mouse Foxm1 (Mus musculus, UniProt O08696); assay: Biotin-peptide Pulldown in 4T1 cell lysates; type: binding; conditions: biotin-labeled, 20 µM, 4T1 cell lysates (500 µg); Fig. S18B
T1 construct: endogenous in cells; host or cells: 4T1 mouse breast cancer cell lysate

[4] = Immunogenicity, ELISA of anti-M1-21 antibodies in serum; type: in vivo, mouse; conditions: ICR/JCL mice, 30 mg/kg/week × 4 weeks I.P., serum Week 2 to Week 8, 1:1000, ELISA 492 nm; except at Week 4
Method: as §1, §2

[5] = MDA-MB-231, 10 µM, 24 h, qPCR, Western blotting

T1 sequence (O08696 whole entry): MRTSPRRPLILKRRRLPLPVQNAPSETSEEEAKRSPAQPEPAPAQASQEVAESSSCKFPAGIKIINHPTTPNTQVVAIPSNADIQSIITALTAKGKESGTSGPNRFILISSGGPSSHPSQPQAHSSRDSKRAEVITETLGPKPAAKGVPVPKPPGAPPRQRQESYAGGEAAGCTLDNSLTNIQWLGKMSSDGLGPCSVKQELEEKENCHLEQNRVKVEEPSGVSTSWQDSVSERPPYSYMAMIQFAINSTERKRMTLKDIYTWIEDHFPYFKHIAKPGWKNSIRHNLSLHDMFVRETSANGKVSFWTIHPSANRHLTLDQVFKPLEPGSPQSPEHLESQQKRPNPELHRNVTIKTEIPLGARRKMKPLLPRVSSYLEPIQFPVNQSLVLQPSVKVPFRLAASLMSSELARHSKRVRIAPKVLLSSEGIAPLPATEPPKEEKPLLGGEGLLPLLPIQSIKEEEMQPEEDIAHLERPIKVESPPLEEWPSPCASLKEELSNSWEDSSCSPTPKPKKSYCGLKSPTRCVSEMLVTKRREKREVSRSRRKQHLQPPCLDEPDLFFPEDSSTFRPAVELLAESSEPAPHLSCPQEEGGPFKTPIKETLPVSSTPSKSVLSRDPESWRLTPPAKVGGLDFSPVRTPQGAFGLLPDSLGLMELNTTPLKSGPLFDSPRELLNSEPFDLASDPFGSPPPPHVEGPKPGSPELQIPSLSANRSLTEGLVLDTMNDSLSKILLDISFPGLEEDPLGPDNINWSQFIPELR

CC[C@@H](C)[C@@H](NC(=O)[C@@H](CC(C)C)NC(=O)[C@H](NC(=O)[C@@H](CO)NC(=O)[C@@H](CS)NC(=O)CNC(=O)CNC(=O)[C@@H](C)NC(=O)[C@H]1CCCN1C(=O)[C@H](NC(=O)[C@@H](CCC(N)=O)NC(=O)[C@H]1CCCN1C(=O)[C@H]1CCCN1C(=O)CNC(=O)[C@@H](CC(C)C)NC(=O)[C@@H](CCCNC(=N)N)NC(=O)[C@H]1CCCN1C(=O)[C@@H](CCC(N)=O)NC(=O)[C@H](NC(=O)[C@H](N)CCC(N)=O)[C@H](C)O)[C@H](C)O)[C@H](C)CC)C(=O)N[C@H](Cc1ccccc1)C(=O)N[C@H](CCCNC(=N)N)C(=O)N[C@H](CCCNC(=N)N)C(=O)N[C@H](CCCNC(=N)N)C(=O)N[C@H](CCC(N)=O)C(=O)N[C@H](CCCNC(=N)N)C(=O)N[C@H](CCCNC(=N)N)C(=O)N[C@H](CCCCN)C(=O)N[C@H](CCCCN)C(=O)N[C@H](CCCNC(=N)N)C(=O)NCC(=O)O [M1-21] (H-[dQ][dT][dQ][dP][dR][dL]G[dP][dP][dQ][dT][dP][dA]GG[dC][dS][dI][dL][dI][dF][dR][dR][dR][dQ][dR][dR][dK][dK][dR]G-OH; N-terminus and C-terminus assumed)
FOXM1-mediated stimulation on FOXM1-binding promoters (luciferase) [1]: abrogated FOXM1-mediated stimulation | hemolysis to erythrocytes (mouse erythrocytes): very mild hemolysis | survival time of the animals (4T1-Luc-GFP cells; Mantel-Cox, log rank test): significantly prolonged | metastasis of 4T1-Luc-GFP cells (in vivo luciferase imaging) (4T1-Luc-GFP cells; n = 6 per group, Day 1, 7, 17, organs Day 21): prevented metastasis | levels of epithelial marker E-cadherin (MDA-MB-231 cells; [5]): increased | levels of mesenchymal markers Vimentin and N-cadherin (MDA-MB-231 cells; [5]): decreased | mRNA and protein levels of PCNA and Cyclin B1 (MDA-MB-231 cells; MDA-MB-231, 20 µM for 24 h, versus M1-21mut): downregulated | levels (mRNA or protein) of FOXM1 itself (MDA-MB-231 cells; MDA-MB-231, 20 µM, and spontaneously developed cancer tissues, Fig. S21): decrease the levels | mRNA and protein levels of CDC25B, PLK1 and Vimentin (MDA-MB-231 cells; MDA-MB-231, 20 µM, qPCR 24 h, Western blotting 1.5-36 h): dramatically repressed the expression | β-catenin-mediated stimulation on the TCF/LEF-binding promoter (luciferase) (TCF/LEF-binding promoter): abolished β-catenin-mediated stimulation | FOXM1-MuvB-mediated stimulation on the CHR-containing promoter (luciferase) [2]: abolished FOXM1-MuvB-mediated stimulation | size and weight of engrafted tumors at the end of the experiment ([3]; BALB/c nude mice, 30 mg/kg intraperitoneal once every two days, Day 19, n = 6): significantly decreased | growth of engrafted tumors (tumor volume) ([3]; BALB/c nude mice, 30 mg/kg intraperitoneal once every two days, n = 6, versus PBS): growth inhibition of engrafted tumors | levels of FOXM1, CDC25B and PLK1 in tumor samples ([3]; Western blotting of harvested cancer tissues, Fig. S12B): decreased levels | binding to endogenous mouse Foxm1 in Pulldown (mouse Foxm1): could bind | M1-21-specific antibody generation in serum [4]: relatively low levels
